Data: US20230082430A1 (C4 Therapeutics, Inc., priority 2019, published 2023)

What follows are molecules tested on NCIH929.1 cells (assay: Cell viability assay for Table 1 (CellTiter-Glo 2.0, ATP quantification, 96 hr)). Settings: NCIH929.1 cell viability, top concentration 1 μM, 10 points half log titration, cytostatic control.
Format: cell-based
Procedure: Example 171. Cell Viability Assay for Table 1
RPMI 1640 medium, fetal bovine serum (FBS) and 2-mercaptoethanol were purchased from Gibco (Grand Island, N.Y., USA). CellTiter-Glo® 2.0 Assay was purchased from Promega (Madison, Wis., USA). NCIH929.1 cell line was purchased from ATCC (Manassas, Va., USA). Cell culture flasks and 384-well microplates were acquired from VWR (Radnor, Pa., USA).
At the same day of compound treatment, CellTiter-Glo® 2.0 was added to a plate with cells treated in the absence of the test compound to establish Cytostatic control value (Gm).
With `CC1(n2cc(Cc3ccc4c5c(cccc35)C(=O)N4C3CCC(=O)NC3=O)cn2)CCN(C(=O)C23C4C5C6C4C2C6C53)CC1` (centres unmarked) [Compound 18, 3-(6-((1-(1-(Cubane-1-carbonyl)-4-methylpiperidin-4-yl)-1H-pyrazol-4-yl)methyl)-2-oxobenzo[cd]indol-1(2H)-yl)piperidine-2,6-dione] the GI50 was < 1 nM.
In the case of `O=C1CCC(N2C(=O)c3cccc4c(Cc5cnn(C6CCN(C(=O)C78C9C%10C%11C9C7C%11C%108)CC6)c5)ccc2c34)C(=O)N1` (centres unmarked) [Compound 3, 3-(6-((1-(1-(Cubane-1-carbonyl)piperidin-4-yl)-1H-pyrazol-4-yl)methyl)-2-oxobenzo[cd]indol-1(2H)-yl)piperidine-2,6-dione], the GI50 is reported as < 1 nM.
For `CC1(C(=O)N2CCC(n3cc(Cc4ccc5c6c(cccc46)C(=O)N5C4CCC(=O)NC4=O)cn3)CC2)CCC1` (centres unmarked) [Compound 4, 3-(6-((1-(1-(1-Methylcyclobutane-1-carbonyl)piperidin-4-yl)-1H-pyrazol-4-yl)methyl)-2-oxobenzo[cd]indol-1(2H)-yl)piperidine-2,6-dione], the GI50 was < 1 nM.
For `CC(C)(C)OC(=O)N1CCC(n2cc(Cc3ccc4c5c(cccc35)C(=O)N4C3CCC(=O)NC3=O)cn2)CC1` (centres unmarked) [Compound 2, tert-Butyl 4-(4-((1-(2,6-Dioxopiperidin-3-yl)-2-oxo-1,2-dihydrobenzo[cd]indol-6-yl)methyl)-1H-pyrazol-1-yl)piperidine-1-carboxylate], the GI50 was < 1 nM.

Each molecule was assayed on NCIH929.1 cells (assay: Cell viability assay for Table 2 (CellTiter-Glo 2.0, ATP quantification, 96 hr)). Settings: 96 h, NCIH929.1 cell viability, 96 hr, top concentration 1 μM, 14 points half log titration; read-out: IC50.
Format: cell-based
From the text: Cell Viability Assay for Table 2
CellTiter-Glo® 2.0 Assay was purchased from Promega (Madison, Wis., USA). NCIH929.1 cell line was purchased from ATCC (Manassas, Va., USA). Cell culture flasks and 384-well microplates were acquired from VWR (Radnor, Pa., USA).
For `CC1(CN2CCC(n3cc(Cc4ccc5c6c(cccc46)C(=O)N5C4CCC(=O)NC4=O)c(Cl)n3)CC2)CCC1` (centres unmarked) [Compound 200, 3-[6-[[3-chloro-1-[1-[(1-methylcyclobutyl)methyl]-4-piperidyl]pyrazol-4-yl]methyl]-2-oxo-benzo[cd]indol-1-yl]piperidine-2,6-dione], the IC50 was < 1 nM.
In the case of `O=C1CCC(N2C(=O)c3cccc4c(Cc5cnn(C6CCN(CC7(C(F)(F)F)CCC7)CC6)c5)ccc2c34)C(=O)N1` (centres unmarked) [Compound 57, 3-(2-oxo-6-((1-(1-((1-(trifluoromethyl)cyclobutyl)methyl)piperidin-4-yl)-1H-pyrazol-4-yl)methyl)benzo[cd]indol-1(2H)-yl)piperidine-2,6-dione], the IC50 is reported as < 1 nM.
For `CC1(CN2CCC(n3cc(Cc4ccc5c6c(cccc46)C(=O)N5C4CCC(=O)NC4=O)cn3)CC2)CCC1` (centres unmarked) [Compound 55, 3-(6-((1-(1-((1-methylcyclobutyl)methyl)piperidin-4-yl)-1H-pyrazol-4-yl)methyl)-2-oxobenzo[cd]indol-1(2H)-yl)piperidine-2,6-dione], the IC50 was < 1 nM.
In the case of `CC(C)(CF)C(=O)N1CCC(C)(n2cc(Cc3ccc4c5c(cccc35)C(=O)N4C3CCC(=O)NC3=O)cn2)CC1` (centres unmarked) [Compound 95, 3-(6-((1-(1-(3-fluoro-2,2-dimethylpropanoyl)-4-methylpiperidin-4-yl)-1H-pyrazol-4-yl)methyl)-2-oxobenzo[cd]indol-1(2H)-yl)piperidine-2,6-dione], the IC50 is reported as < 1 nM.
In the case of `O=C1CCC(N2C(=O)c3cccc4c(Cc5cnn(C6CCN(CC7(F)CCC7)CC6)c5)ccc2c34)C(=O)N1` (centres unmarked) [Compound 59, 3-(6-((1-(1-((1-fluorocyclobutyl)methyl)piperidin-4-yl)-1H-pyrazol-4-yl)methyl)-2-oxobenzo[cd]indol-1(2H)-yl)piperidine-2,6-dione], the IC50 is reported as < 1 nM.
In the case of `CC1(CN2CCC(C#N)(n3cc(Cc4ccc5c6c(cccc46)C(=O)N5C4CCC(=O)NC4=O)cn3)CC2)CCC1` (centres unmarked) [Compound 193, 4-[4-[[1-(2,6-dioxo-3-piperidyl)-2-oxo-benzo[cd]indol-6-yl]methyl]pyrazol-1-yl]-1-[(1-methylcyclobutyl)methyl]piperidine-4-carbonitrile], the IC50 is reported as < 1 nM.
With `O=C1CCC(N2C(=O)c3cccc4c(Cc5cnn(C6CCN(C(=O)C7(C(F)(F)F)CC7)CC6)c5)ccc2c34)C(=O)N1` (centres unmarked) [Compound 52, 3-(2-oxo-6-((1-(1-(1-(trifluoromethyl)cyclopropane-1-carbonyl)piperidin-4-yl)-1H-pyrazol-4-yl)methyl)benzo[cd]indol-1(2H)-yl)piperidine-2,6-dione] the IC50 was < 1 nM.
